In PubChem BioAssay (NCI):
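How tested: cells in 96-well plates exposed to compound for 48 hours at five concentrations. The concentration for 50% growth inhibition is given as GI50. TGI is the concentration that stops growth completely.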

Legend:
Assay in all cases: DTP human tumour cell line panel, 48 h
786-0 renal = system: 786-0 renal
A498 renal = system: A498 renal
CAKI-1 renal = system: CAKI-1 renal
DU-145 prostate = system: DU-145 prostate
HCT-116 colon = system: HCT-116 colon
MALME-3M melanoma = system: MALME-3M melanoma
MDA-MB-231 breast = system: MDA-MB-231 breast
SK-OV-3 ovarian = system: SK-OV-3 ovarian
U251 CNS = system: U251 CNS
UACC-62 melanoma = system: UACC-62 melanoma

Row | Structure (SMILES) | GI50 (786-0 renal) [µM] | TGI (786-0 renal) [µM] | GI50 (A498 renal) [µM] | TGI (A498 renal) [µM] | GI50 (CAKI-1 renal) [µM] | TGI (CAKI-1 renal) [µM] | GI50 (DU-145 prostate) [µM] | TGI (DU-145 prostate) [µM] | GI50 (HCT-116 colon) [µM] | TGI (HCT-116 colon) [µM] | GI50 (MALME-3M melanoma) [µM] | TGI (MALME-3M melanoma) [µM] | GI50 (MDA-MB-231 breast) [µM] | TGI (MDA-MB-231 breast) [µM] | GI50 (SK-OV-3 ovarian) [µM] | TGI (SK-OV-3 ovarian) [µM] | GI50 (U251 CNS) [µM] | TGI (U251 CNS) [µM] | GI50 (UACC-62 melanoma) [µM] | TGI (UACC-62 melanoma) [µM]
1 | O=C(N/N=C/c1cc(Cl)ccc1O)c1ccccc1Nc1ccnc(C(F)(F)F)c1 | 0.465 | 4.29 | 0.585 | 7.9 | 0.405 | 3.87 | 0.362 | 18.8 | 0.27 | 13.1 | 0.839 | 5.29 | 0.54 | 21.1 | 0.55 | 19.1 | 0.335 | 9.41 | 0.331 | 1.75
2 | Cn1c2c(c3ccccc3c1=O)C(=O)c1ccccc1-2 | – | > 100 | – | > 100 | – | > 100 | – | > 100 | – | > 100 | – | > 100 | – | > 100 | – | > 100 | – | > 100 | – | > 100
